Measurements reported in ChEMBL document CHEMBL6120976, “Derivatization of Microcystins Can Increase Target Inhibition while Reducing Cellular Uptake” (J Nat Prod, 2025).
Numbered stars: 1 amine (or outer) side, 2 acyl side, 3 side chain; on linkers, the order of the positions; unused ones are H or OH. Bridge positions count the residues as written; N and C are the ends. Square brackets hold non-standard residues; d marks the D form. Peptide text beside a SMILES is read from it. Adda = CO[C@@H](Cc1ccccc1)[C@@H](C)/C=C(C)/C=C/[C@H](N[*:1])[C@H](C)C(=O)[*:2]; dAsp(3S-Me) = C[C@H](C(=O)[*:3])[C@@H](N[*:1])C(=O)[*:2]; d(γGlu) = O=C(O)[C@@H](CCC(=O)[*:2])N[*:1]; NMeDha = C=C(NC)C(=O)O

Columns and labels:
OATP1B3 = test: Cytotoxicity against sodium butyrate-treated HEK293 cells transfected with OATP1B3 incubated for 48 hrs by absorbance based assay; assay type: toxicity, cell-based; conditions: human
[1] = Selectivity index, ratio of EC50 for cytotoxicity against sodium butyrate-treated HEK293 cells transfected with OATP1B3 to IC50 for inhibition of PP1 (unknown origin); assay type: cell-based
[2] = Selectivity index, ratio of EC50 for cytotoxicity against sodium butyrate-treated HEK293 cells transfected with OATP1B1 to IC50 for inhibition of PP1 (unknown origin); assay type: cell-based
OATP1B1 = test: Cytotoxicity against sodium butyrate-treated HEK293 cells transfected with OATP1B1 incubated for 48 hrs by absorbance based assay; assay type: toxicity, cell-based; conditions: human
[3] = Inhibition of PP1 (unknown origin) incubated for 2 hrs by absorbance based assay; parameters: species or system Homo sapiens
[4] = Selectivity index, ratio of EC50 for cytotoxicity against sodium butyrate-treated HEK293 cells transfected with OATP1B1 to EC50 for cytotoxicity against sodium butyrate-treated HEK293 cells transfected with OATP1B3; assay type: cell-based

C=C1C(=O)N[C@H](C)C(=O)N[C@@H](CC(C)C)C(=O)N[C@@H](C(=O)O)[C@H](C)C(=O)N[C@@H](CCCNC(=N)N)C(=O)N[C@@H](/C=C/C(C)=C/[C@H](C)[C@H](Cc2ccccc2)OC)[C@H](C)C(=O)N[C@@H](C(=O)O)CCC(=O)N1C [MICROCYSTIN-LR] (R[Adda][d(γGlu)][NMeDha][dA]L[dAsp(3S-Me)]-OH; lactam N-7)
EC50 at 48 h (OATP1B3): 9.3 nM
Ratio [1]: 1.7
Ratio [2]: 1.6
EC50 at 48 h (OATP1B1): 8.8 nM
IC50 [3]: 5.5 nM
Ratio EC50 [4]: 1
